Assay results reported in article PMC2667321 (Journal of medicinal chemistry, 2009).

Columns and labels:
[1] = target: metalloprotease LF (lethal factor) (Bacillus anthracis, UniProt P15917); assay: biochemical
[2] = target: Akt1 (Homo sapiens, UniProt P31749); assay: Selectivity profile: Akt1; type: biochemical
[3] = Insulin tolerance test in insulin insensitive db/db mice; type: in vivo; conditions: 25 mg/kg i.p. once, 30 minutes prior to insulin injection

metalloprotease LF (lethal factor), sequence (P15917 34-809 limits assumed): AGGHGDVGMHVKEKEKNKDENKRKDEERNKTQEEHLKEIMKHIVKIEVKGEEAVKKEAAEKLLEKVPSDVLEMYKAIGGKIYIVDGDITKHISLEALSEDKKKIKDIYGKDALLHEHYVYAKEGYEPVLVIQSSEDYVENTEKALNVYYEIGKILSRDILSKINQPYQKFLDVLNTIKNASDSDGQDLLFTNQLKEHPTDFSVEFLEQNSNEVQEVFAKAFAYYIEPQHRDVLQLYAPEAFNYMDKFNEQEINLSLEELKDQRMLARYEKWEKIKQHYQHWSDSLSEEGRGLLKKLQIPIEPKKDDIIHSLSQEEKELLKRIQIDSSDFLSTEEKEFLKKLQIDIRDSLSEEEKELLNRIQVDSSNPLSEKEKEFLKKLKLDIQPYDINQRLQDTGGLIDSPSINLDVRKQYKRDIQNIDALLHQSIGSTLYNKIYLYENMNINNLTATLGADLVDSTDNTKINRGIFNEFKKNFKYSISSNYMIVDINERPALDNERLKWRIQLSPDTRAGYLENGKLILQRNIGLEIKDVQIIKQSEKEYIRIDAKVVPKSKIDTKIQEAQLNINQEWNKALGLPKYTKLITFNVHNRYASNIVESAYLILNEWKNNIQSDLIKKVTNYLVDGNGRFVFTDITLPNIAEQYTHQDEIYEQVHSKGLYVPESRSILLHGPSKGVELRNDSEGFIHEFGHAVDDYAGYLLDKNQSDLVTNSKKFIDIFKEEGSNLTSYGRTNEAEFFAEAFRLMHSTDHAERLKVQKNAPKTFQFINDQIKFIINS
Akt1, sequence (P31749 whole entry, species assumed): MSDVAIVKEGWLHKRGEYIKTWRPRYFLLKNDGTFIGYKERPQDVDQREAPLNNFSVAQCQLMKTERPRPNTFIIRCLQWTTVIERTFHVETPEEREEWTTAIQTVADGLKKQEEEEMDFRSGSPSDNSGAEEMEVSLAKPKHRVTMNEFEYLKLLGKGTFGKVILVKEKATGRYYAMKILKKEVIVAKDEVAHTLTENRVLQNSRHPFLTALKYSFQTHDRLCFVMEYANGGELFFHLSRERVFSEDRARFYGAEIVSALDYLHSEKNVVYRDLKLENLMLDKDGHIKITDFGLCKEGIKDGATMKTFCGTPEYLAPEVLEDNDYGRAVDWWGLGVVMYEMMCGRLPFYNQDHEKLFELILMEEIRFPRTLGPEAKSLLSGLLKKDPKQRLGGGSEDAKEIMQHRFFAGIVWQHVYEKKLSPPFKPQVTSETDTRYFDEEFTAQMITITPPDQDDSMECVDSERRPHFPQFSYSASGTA

In the case of `O=c1[nH]nc(Sc2ncc([N+](=O)[O-])s2)n1-c1ccc([N+](=O)[O-])cc1` [Compound 3j, 4-(4-nitrophenyl)-5-(5-nitrothiazol-2-ylthio)-4H-1,2,4-triazol-3-ol], the IC50 [1] is reported as greater than 100 µM.
With `Cn1cccc1-c1nnc(Sc2ncc([N+](=O)[O-])s2)n1-c1ccc(Cl)cc1Cl` [Compound 7b, 2-(4-(2,4-dichlorophenyl)-5-(1-methyl-1H-pyrrol-2-yl)-4H-1,2,4-triazol-3-ylthio)-5-nitrothiazole] the IC50 [1] was greater than 100 µM.
`O=[N+]([O-])c1cnc(Sc2nnc(Sc3ncc([N+](=O)[O-])s3)s2)s1` [Compound 8f, 2,5-bis(5-nitrothiazol-2-ylthio)-1,3,4-thiadiazole] gave an IC50 [1] greater than 100 µM.
In the case of `Nc1nnc(Sc2ncc([N+](=O)[O-])s2)s1` [Compound 9, 5-(5-nitrothiazol-2-ylthio)-1,3,4-thiadiazol-2-amine], the IC50 [1] is reported as greater than 100 µM, the “activity against Akt kinase” value [2] is reported as “completely inactive” and the “effect of insulin on blood glucose levels compared to the vehicle control” value [3] is reported as “statistically significant reduction in blood glucose levels”.
